Tested on: NCI-H196 complex spheroid viability
Test: Anticancer human tumor NCI-H196 cell line growth inhibition [LSD1];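 also: spheroids exposed to agents for 7 days before readout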;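 as to viability, T/C: 100% = DMSO vehicle control viability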
Conditions: for IC50: curve of first compound; for viability, T/C: stronger effect = lower value
Outline: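 Complex spheroids of tumor cells with HUVEC and human MSCs, exposed to iadademstat combined with other agents. Each agent tested in half-log steps from near clinical Cmax (else 10 microM top), DMSO ≤0.25%.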

## Nc1ccn(C2OC(CO)C(O)C2(F)F)c(=O)n1 (stereo not given) + NC1CCC(NC2CC2c2ccccc2)CC1
Second compound 0.1 µM
  IC50: > 300 nM
Second compound 0.316 µM
  IC50: > 300 nM
Second compound 1 µM
  IC50: > 300 nM
Second compound 3.16 µM
  IC50: > 300 nM
Second compound 10 µM
  IC50: > 300 nM
Second compound 0.1 µM, first compound 0.000949 µM
  viability, T/C: 104%
Second compound 0.1 µM, first compound 0.003 µM
  viability, T/C: 98.6%
Second compound 0.1 µM, first compound 0.00949 µM
  viability, T/C: 85.9%
Second compound 0.1 µM, first compound 0.03 µM
  viability, T/C: 65.1%
Second compound 0.1 µM, first compound 0.0949 µM
  viability, T/C: 61.8%
Second compound 0.1 µM, first compound 0.3 µM
  viability, T/C: 68.1%
Second compound 0.316 µM, first compound 0.000949 µM
  viability, T/C: 96.8%
Second compound 0.316 µM, first compound 0.003 µM
  viability, T/C: 99.3%
Second compound 0.316 µM, first compound 0.00949 µM
  viability, T/C: 93.7%
Second compound 0.316 µM, first compound 0.03 µM
  viability, T/C: 69.2%
Second compound 0.316 µM, first compound 0.0949 µM
  viability, T/C: 59.2%
Second compound 0.316 µM, first compound 0.3 µM
  viability, T/C: 70.3%
Second compound 1 µM, first compound 0.000949 µM
  viability, T/C: 97.3%
Second compound 1 µM, first compound 0.003 µM
  viability, T/C: 96.7%
Second compound 1 µM, first compound 0.00949 µM
  viability, T/C: 85%
Second compound 1 µM, first compound 0.03 µM
  viability, T/C: 63.9%
Second compound 1 µM, first compound 0.0949 µM
  viability, T/C: 64.2%
Second compound 1 µM, first compound 0.3 µM
  viability, T/C: 63.5%
Second compound 3.16 µM, first compound 0.000949 µM
  viability, T/C: 99.7%
Second compound 3.16 µM, first compound 0.003 µM
  viability, T/C: 103%
Second compound 3.16 µM, first compound 0.00949 µM
  viability, T/C: 88.2%
Second compound 3.16 µM, first compound 0.03 µM
  viability, T/C: 63.8%
Second compound 3.16 µM, first compound 0.0949 µM
  viability, T/C: 63.8%
Second compound 3.16 µM, first compound 0.3 µM
  viability, T/C: 68.3%
Second compound 10 µM, first compound 0.000949 µM
  viability, T/C: 94.2%
Second compound 10 µM, first compound 0.003 µM
  viability, T/C: 108%
Second compound 10 µM, first compound 0.00949 µM
  viability, T/C: 86.5%
Second compound 10 µM, first compound 0.03 µM
  viability, T/C: 75.6%
Second compound 10 µM, first compound 0.0949 µM
  viability, T/C: 65%
Second compound 10 µM, first compound 0.3 µM
  viability, T/C: 67.4%

## Nc1ncn(C2CC(O)C(CO)O2)c(=O)n1 (stereo not given) + NC1CCC(NC2CC2c2ccccc2)CC1
Second compound 0.1 µM
  IC50: > 1000 nM
Second compound 0.316 µM
  IC50: > 1000 nM
Second compound 1 µM
  IC50: > 1000 nM
Second compound 3.16 µM
  IC50: > 1000 nM
Second compound 10 µM
  IC50: > 1000 nM
Second compound 0.1 µM, first compound 0.00316 µM
  viability, T/C: 94.3%
Second compound 0.1 µM, first compound 0.01 µM
  viability, T/C: 96.1%
Second compound 0.1 µM, first compound 0.0316 µM
  viability, T/C: 96.1%
Second compound 0.1 µM, first compound 0.1 µM
  viability, T/C: 92.5%
Second compound 0.1 µM, first compound 0.316 µM
  viability, T/C: 93.3%
Second compound 0.1 µM, first compound 1 µM
  viability, T/C: 93%
Second compound 0.316 µM, first compound 0.00316 µM
  viability, T/C: 91%
Second compound 0.316 µM, first compound 0.01 µM
  viability, T/C: 97.4%
Second compound 0.316 µM, first compound 0.0316 µM
  viability, T/C: 114%
Second compound 0.316 µM, first compound 0.1 µM
  viability, T/C: 96.7%
Second compound 0.316 µM, first compound 0.316 µM
  viability, T/C: 96.9%
Second compound 0.316 µM, first compound 1 µM
  viability, T/C: 99.3%
Second compound 1 µM, first compound 0.00316 µM
  viability, T/C: 87.8%
Second compound 1 µM, first compound 0.01 µM
  viability, T/C: 94.9%
Second compound 1 µM, first compound 0.0316 µM
  viability, T/C: 94.9%
Second compound 1 µM, first compound 0.1 µM
  viability, T/C: 88.5%
Second compound 1 µM, first compound 0.316 µM
  viability, T/C: 93.8%
Second compound 1 µM, first compound 1 µM
  viability, T/C: 101%
Second compound 3.16 µM, first compound 0.00316 µM
  viability, T/C: 94.5%
Second compound 3.16 µM, first compound 0.01 µM
  viability, T/C: 95.8%
Second compound 3.16 µM, first compound 0.0316 µM
  viability, T/C: 99.2%
Second compound 3.16 µM, first compound 0.1 µM
  viability, T/C: 89.6%
Second compound 3.16 µM, first compound 0.316 µM
  viability, T/C: 87.1%
Second compound 3.16 µM, first compound 1 µM
  viability, T/C: 91.2%
Second compound 10 µM, first compound 0.00316 µM
  viability, T/C: 91.2%
Second compound 10 µM, first compound 0.01 µM
  viability, T/C: 94.8%
Second compound 10 µM, first compound 0.0316 µM
  viability, T/C: 91.2%
Second compound 10 µM, first compound 0.1 µM
  viability, T/C: 87.5%
Second compound 10 µM, first compound 0.316 µM
  viability, T/C: 92.9%
Second compound 10 µM, first compound 1 µM
  viability, T/C: 91.3%

From PubChem BioAssay AID1918958 (Molecular Pharmacology Branch, DTP, NCI, 2023)
